Test results taken from patent US9365576B2, “Pyrrolopyrrolidinone compounds” (Novartis AG, priority 2012, dated 2016).

Experiments:
Format in all cases: binding
[1] = target: T1, human MDM2 protein (amino acids 2-188) (Homo sapiens (Human), UniProt Q00987); assay: TR-FRET assay, p53-MDM2 Assay 1; settings: 1.25 nM MDM2-biotinylated, 10 nM Cy5-p53 peptide
Method: (§1) The inhibition of p53-MDM2 and p53-MDM4 interactions is measured by time resolved fluorescence energy transfer (TR-FRET). Fluorescence energy transfer (or Foerster resonance energy transfer) describes an energy transfer between donor and acceptor fluorescent molecules. For this assay, human MDM2 protein (amino acids 2-188) and human MDM4 protein (amino acids 2-185), tagged with a C-terminal biotin moiety, are used in combination with a Europium labeled streptavidin (Perkin Elmer, Inc., Waltham, Mass., USA) serving as the donor fluorophore. The p53 derived, Cy5 labeled peptide Cy5-TFSDLWKLL (p53 aa18-26) is the energy acceptor. Upon excitation of the donor molecule at 340 nm, binding interaction between MDM2 or MDM4 and the p53 peptide induces energy transfer and enhanced response at the acceptor emission wavelength at 665 nm. Disruption of the formation of the p53-MDM2 or p53-MDM4 complex due to an inhibitor molecule binding to the p53 binding site of MDM2 or MDM4 results in increased donor emission at 620 nm. The ratiometric FRET assay readout is calculated from the raw data of the two distinct fluorescence signals measured in time resolved mode (fluorescence 665 nm/fluorescence 620 nm×1000).
(§2) After addition of 1.25 nM MDM2-biotinylated or 2.5 nM MDM4-biotinylated (internal preparations), and 0.625 nM Europium labeled streptavidin (Perkin Elmer), the solution is pre-incubated for 15 minutes at room temperature, then 10 nM Cy5-p53 peptide (internal preparation) is added before an incubation at room temperature for 15 minutes prior to reading the plate. For measurement of samples, a Victor II microplate reader (Perkin Elmer) is used with the following settings: Excitation 340 nm, Emission Donor 620 nm and Emission Acceptor 665 nm. IC50 values are calculated by curve fitting using XLfit. If not specified, reagents are purchased from Sigma-Aldrich Chemie GmBH, Buchs, Switzerland.
(§3) This assay was used to evaluate compounds displaying inhibition of p53-MDM2 interaction and p53-MDM4 interaction at IC50s of 0.005 to 50 μM (p53-MDM2 Assay 1 and p53-MDM4 Assay 1, respectively). For selected compounds displaying IC50s between […] on MDM2, a slightly modified assay is used with the following adaptations: 0.1 nM MDM2, 0.1 nM Europium labeled streptavidin and Tecan genios Pro is used as a microplate reader for the fluorescence measurements (p53-MDM2 Assay 2).

[2] = target: human MDM4 protein (amino acids 2-185) (Homo sapiens (Human), UniProt O15151); assay: TR-FRET assay, p53-MDM4 Assay 1; settings: 2.5 nM MDM4-biotinylated, 10 nM Cy5-p53 peptide
Method: as §1, §2, §3

[3] = target: T1, human MDM2 protein (amino acids 2-188); assay: TR-FRET assay, p53-MDM2 Assay 2 (modified); settings: TR-FRET; 0.1 nM MDM2, 0.1 nM Europium labeled streptavidin, Tecan genios Pro reader; read-out: IC50 p53-MDM2 Assay 2
Outline: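 Biotinylated human MDM2 (aa 2–188, 1.25 nM) was preincubated 15 min at room temperature with 0.625 nM Eu-streptavidin, then 10 nM Cy5-p53 peptide (aa 18–26) added for 15 min. TR-FRET ratio 665/620 nm (excitation 340 nm) was read; IC50 came from curve fitting.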

Chain of human MDM4 protein (amino acids 2-185) (O15151 2-185): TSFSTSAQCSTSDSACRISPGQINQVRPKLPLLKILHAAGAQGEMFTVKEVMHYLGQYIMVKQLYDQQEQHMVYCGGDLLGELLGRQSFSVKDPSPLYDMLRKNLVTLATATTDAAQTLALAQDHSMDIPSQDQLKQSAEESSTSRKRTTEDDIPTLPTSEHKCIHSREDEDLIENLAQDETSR
T1 sequence (Q00987 2-188): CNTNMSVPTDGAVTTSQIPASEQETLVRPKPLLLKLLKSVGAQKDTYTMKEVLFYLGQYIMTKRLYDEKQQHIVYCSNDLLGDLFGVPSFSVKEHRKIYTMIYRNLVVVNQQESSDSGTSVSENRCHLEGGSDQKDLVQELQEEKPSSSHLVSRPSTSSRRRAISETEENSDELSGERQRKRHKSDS

Row | SMILES | IC50 [1] [nM] | IC50 [2] [nM] | IC50 [3] [nM]
1 | COc1ccc(C(=O)NOCCO)cc1-c1cc2c(n1C(C)C)C(c1ccc(Cl)cc1)N(c1cc(Cl)ccc1C)C2=O (stereo not drawn) [Example 37, 3-[5-(5-Chloro-2-methyl-phenyl)-6-(4-chloro-phenyl)-1-isopropyl-4-oxo-1,4,5,6-tetrahydro-pyrrolo[3,4-b]pyrrol-2-yl]-N-(2-hydroxy-ethoxy)-4-methoxy-benzamide] | 1.1 | 327 | 0.125
2 | COc1ccc(C(=O)O)cc1-c1cc2c(n1C(C)C)C(c1ccc(Cl)cc1)N([C@H]1CC[C@H](O)CC1)C2=O (stereo partly drawn) [Example 65, 3-[6-(4-Chloro-phenyl)-5-(trans-4-hydroxy-cyclohexyl)-1-isopropyl-4-oxo-1,4,5,6-tetrahydro-pyrrolo[3,4-b]pyrrol-2-yl]-4-methoxy-benzoic acid] | 12.3 | 8790 | 4.91
3 | COc1nc(N)ncc1-c1cc2c(n1C(C)C)C(c1ccc(Cl)cc1)N([C@H]1CC[C@H](O)CC1)C2=O (stereo partly drawn) [Example 68, 2-(2-Amino-4-methoxy-pyrimidin-5-yl)-6-(4-chloro-phenyl)-5-(trans-4-hydroxy-cyclohexyl)-1-isopropyl-5,6-dihydro-1H-pyrrolo[3,4-b]pyrrol-4-one] | 12.6 | 7860 | 14.2
4 | COc1nc(N)ncc1-c1cc2c(n1C(C)C)C(c1ccc(Cl)cc1)N(C1CCOCC1)C2=O (stereo not drawn) [Example 78, 2-(2-Amino-4-methoxy-pyrimidin-5-yl)-6-(4-chloro-phenyl)-1-isopropyl-5-(tetrahydro-pyran-4-yl)-5,6-dihydro-1H-pyrrolo[3,4-b]pyrrol-4-one] | 8.5 | 14000 | 5.08
5 | COc1ccccc1-c1cc2c(n1C(C)C)C(c1ccc(Cl)cc1C)N([C@H]1CC[C@H](O)CC1)C2=O (stereo partly drawn) [Example 101, 6-(4-Chloro-2-methyl-phenyl)-5-(trans-4-hydroxy-cyclohexyl)-1-isopropyl-2-(2-methoxy-phenyl)-5,6-dihydro-1H-pyrrolo[3,4-b]pyrrol-4-one] | 27 | 2990 | 31.9
6 | CNC(=O)c1ccc(OC)c(-c2cc3c(n2C(C)C)C(c2ccc(Cl)cc2C)N([C@H]2CC[C@H](O)CC2)C3=O)c1 (stereo partly drawn) [Example 102, 3-[6-(4-Chloro-2-methyl-phenyl)-5-(trans-4-hydroxy-cyclohexyl)-1-isopropyl-4-oxo-1,4,5,6-tetrahydro-pyrrolo[3,4-b]pyrrol-2-yl]-4-methoxy-N-methyl-benzamide] | 12.7 | 2380 | 13.6
7 | COc1ncc(-c2cc3c(n2C(C)C)C(c2ccc(Cl)cc2C)N([C@H]2CC[C@H](O)CC2)C3=O)c(OC)n1 (stereo partly drawn) [Example 103, 6-(4-Chloro-2-methyl-phenyl)-2-(2,4-dimethoxy-pyrimidin-5-yl)-5-(trans-4-hydroxy-cyclohexyl)-1-isopropyl-5,6-dihydro-1H-pyrrolo[3,4-b]pyrrol-4-one] | 20.7 | 4710 | 30.1
8 | COc1ncc(-c2cc3c(n2C(C)C)C(c2ccc(Cl)cc2C)N(C2CCOCC2)C3=O)c(OC)n1 (stereo not drawn) [Example 105, 6-(4-Chloro-2-methyl-phenyl)-2-(2,4-dimethoxy-pyrimidin-5-yl)-1-isopropyl-5-(tetrahydro-pyran-4-yl)-5,6-dihydro-1H-pyrrolo[3,4-b]pyrrol-4-one] | 10.2 | 6290 | 14.3
9 | CNC(=O)N1CCC(N2C(=O)c3cc(-c4cnc(OC)nc4OC)n(C(C)C)c3C2c2ccc(Cl)cc2)CC1 (stereo not drawn) [Example 107, 4-[6-(4-Chloro-phenyl)-2-(2,4-dimethoxy-pyrimidin-5-yl)-1-isopropyl-4-oxo-4,6-dihydro-1H-pyrrolo[3,4-b]pyrrol-5-yl]-piperidine-1-carboxylic acid methylamide] | 3 | 3640 | 2.69
10 | COc1nc(N)ncc1-c1cc2c(n1C(C)C)C(c1ccc(Cl)cc1)N(C1CCC(=O)N(C)C1)C2=O (stereo not drawn) [Example 108, 2-(2-Amino-4-methoxy-pyrimidin-5-yl)-6-(4-chloro-phenyl)-1-isopropyl-5-(1-methyl-6-oxo-piperidin-3-yl)-5,6-dihydro-1H-pyrrolo[3,4-b]pyrrol-4-one] | 3.3 | 9020 | 3.7
11 | COc1ncc(-c2cc3c(n2C(C)C)[C@H](c2ccc(Cl)cc2)N(c2cc(Cl)c(=O)n(C)c2)C3=O)c(OC)n1 [Example 121, (S)-5-(5-Chloro-1-methyl-6-oxo-1,6-dihydro-pyridin-3-yl)-6-(4-chloro-phenyl)-2-(2,4-dimethoxy-pyrimidin-5-yl)-1-isopropyl-5,6-dihydro-1H-pyrrolo[3,4-b]pyrrol-4-one] | 0.6 | 1060 | 0.087
12 | COc1nc(N(C)C)ncc1-c1cc2c(n1C(C)C)[C@H](c1ccc(C#N)cc1)N(c1cc(Cl)c[nH]c1=O)C2=O [Example 167, 4-[(S)-5-(5-Chloro-2-oxo-1,2-dihydro-pyridin-3-yl)-2-(2-dimethylamino-4-methoxy-pyrimidin-5-yl)-1-isopropyl-4-oxo-1,4,5,6-tetrahydro-pyrrolo[3,4-b]pyrrol-6-yl]-benzonitrile] | 0.8 | 716 | 0.161
